{
  "source": "patent US8410170B2",
  "about": "“Use of isothiocyanates compounds in treating prostatic diseases and skin cancer” (Wuxi JC Pharmaceutical Technology Co., Ltd., priority 2005, dated 2013)",
  "assay": "In vitro dissolution (paddle method, HPLC)",
  "assay_type": "physicochemical",
  "settings": "500 ml water, 37° C., 45 min, paddle 200 r/min",
  "description": "Dissolution Measurement: Dissolution rates of the compositions were measured according to the procedures described in the Chinese Pharmacopeia 2005, Appendix XC, Method 2: Paddle Determination. Briefly, samples are added into 500 ml of de-aired, and deionized water which is kept at 37±0.5° C. for 45 min while the paddle rotates at 200 r/min. Take samples and let the sample be passed through the 0.8 μm filter membrane, and analyzed by HPLC. The dissolution rate was then calculated.",
  "data": [
    {"compound": "S=C=NCCc1ccccc1", "note": "[PEITC, phenethyl isothiocyanate]", "values": [
      {"measurement": "Dissolution Rate", "result": 0, "unit": "%"}
    ]}
  ]
}
